Results published in the supplement of paper PMC11451515.

Columns and labels:
Details in all cases: 48 h
P12-Ichikawa [1] = test: AUC of viability dose-response curve (% viability x log10 dose units); higher = less sensitive
Outline: (§1)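 Over 48 h at 37°C, leukemia cells in 1536-well plates (500 or 1000 cells/well), adapted to each medium, received library compounds in DMSO at 11 threefold doses from 47 μM to 0.79 nM. CellTiter-Glo One luminescence, normalised per plate to DMSO and cell-free wells, was fitted by a four-parameter log-logistic function of log10 dose. The area under the curve was then integrated by trapezoidal rule, after scaling curves above full viability and removing those that failed quality control.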

NOMO1 [2] = test: as above
Outline: as §1

SEM cells [3] = test: as above
Outline: as §1

NOMO1 [4] = test: cell viability relative to DMSO control; higher = less cytotoxic
Outline: (§2)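 NOMO1 or SEM cells were plated at 500 cells/well and P12-Ichikawa cells at 1000 cells/well in 1536-well plates (5 μl), after each leukemia line had been adapted for at least four passages in each medium. Pin dosing delivered library compounds in DMSO at 11 threefold concentrations, 47 μM to 0.79 nM. CellTiter-Glo One luminescence was read after 48 h at 37°C. Viability is reported as a per-plate percentage of DMSO wells, with cell-free wells as background.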

SEM cells [5] = test: as above
Outline: as §2

P12-Ichikawa [6] = test: as above
Outline: as §2

CN(C)CCCN\C1=C\2C(=O)N(C)C(=O)\N=C2N(C)C3=C1C=CC=C3
AUC of viability dose-response curve
Details | NOMO1 [2] | P12-Ichikawa [1] | SEM cells [3]
HPLM + 10% dialyzed FBS | 446 | 442 | 396
RPMI 5 mM glucose + 10% FBS | 446 | 421 | 394
RPMI 5 mM glucose + 10% dialyzed FBS | 432 | 429 | 397

O[C@@H]1[C@@H](O)[C@H](O[C@@H]([C@H]1O)C(O)=O)OC2=C(O)C(=C3C(=O)\C=C(/OC3=C2)C4=CC=CC=C4)O
AUC of viability dose-response curve
Details | NOMO1 [2] | P12-Ichikawa [1] | SEM cells [3]
HPLM + 10% dialyzed FBS | 445 | 447 | 446
RPMI 5 mM glucose + 10% FBS | 427 | 448 | 409
RPMI 5 mM glucose + 10% dialyzed FBS | 460 | 460 | 425

CSCC[C@H](NC(=O)[C@H](Cc1c[nH]c2ccccc12)NC(=O)CCNC(=O)OC(C)(C)C)C(=O)N[C@@H](CC(=O)O)C(=O)N[C@@H](Cc1ccccc1)C(N)=O
AUC of viability dose-response curve
Details | NOMO1 [2] | P12-Ichikawa [1] | SEM cells [3]
HPLM + 10% dialyzed FBS | 440 | 470 | 460
RPMI 5 mM glucose + 10% FBS | 453 | 464 | 461
RPMI 5 mM glucose + 10% dialyzed FBS | 456 | 470 | 459

Nc1ccn([C@H]2CS[C@@H](CO)O2)c(=O)n1
cell viability [%]
Details | HPLM + 10% dialyzed FBS | RPMI 5 mM glucose + 10% FBS | RPMI 5 mM glucose + 10% dialyzed FBS
NOMO1 [4], 0.000781 µM | – | 112 | –
NOMO1 [4], 0.00234 µM | – | 122 | –
NOMO1 [4], 0.00702 µM | – | 144 | –
NOMO1 [4], 0.0211 µM | – | 133 | –
NOMO1 [4], 0.0632 µM | – | 135 | –
NOMO1 [4], 0.19 µM | – | 138 | –
NOMO1 [4], 0.569 µM | – | 139 | –
NOMO1 [4], 1.71 µM | – | 148 | –
NOMO1 [4], 5.12 µM | – | 133 | –
NOMO1 [4], 15.4 µM | – | 140 | –
NOMO1 [4], 46.1 µM | – | 145 | –
SEM cells [5], 0.000781 µM | 81.2 | 101 | 104
SEM cells [5], 0.00234 µM | 108 | 116 | 136
SEM cells [5], 0.00702 µM | 109 | 108 | 117
SEM cells [5], 0.0211 µM | 122 | 135 | 134
SEM cells [5], 0.0632 µM | 137 | 157 | 144
SEM cells [5], 0.19 µM | 126 | 138 | 138
SEM cells [5], 0.569 µM | 123 | 141 | 139
SEM cells [5], 1.71 µM | 129 | 130 | 135
SEM cells [5], 5.12 µM | 123 | 144 | 138
SEM cells [5], 15.4 µM | 101 | 153 | 110
SEM cells [5], 46.1 µM | 147 | 144 | 135

AUC of viability dose-response curve
Details | NOMO1 [2] | P12-Ichikawa [1] | SEM cells [3]
HPLM + 10% dialyzed FBS | 459 | 440 | 454
RPMI 5 mM glucose + 10% FBS | 464 | 471 | 445
RPMI 5 mM glucose + 10% dialyzed FBS | 472 | 464 | 470

C[C@@H]1C(=O)OC2[C@H](O)[C@]34[C@H]5C[C@@H](C(C)(C)C)[C@]36[C@@H](OC(=O)[C@@H]6O)O[C@@]4(C(=O)O5)[C@]21O (stereo partly drawn)
SEM cells [5], HPLM + 10% dialyzed FBS
Details | cell viability [%]
0.000781 µM | 116
0.00234 µM | 102
0.00702 µM | 129
0.0211 µM | 119
0.0632 µM | 127
0.19 µM | 116
0.569 µM | 117
1.71 µM | 119
5.12 µM | 91.8
15.4 µM | 107
46.1 µM | 65.8

AUC of viability dose-response curve
Details | NOMO1 [2] | P12-Ichikawa [1] | SEM cells [3]
HPLM + 10% dialyzed FBS | 450 | 452 | 451
RPMI 5 mM glucose + 10% FBS | 457 | 445 | 437
RPMI 5 mM glucose + 10% dialyzed FBS | 457 | 450 | 424

CCCCC[C@H](O)/C=C/[C@H]1[C@H](O)CC(=O)[C@@H]1CCCCCCC(=O)O
AUC of viability dose-response curve
Details | NOMO1 [2] | P12-Ichikawa [1] | SEM cells [3]
HPLM + 10% dialyzed FBS | 412 | 464 | 402
RPMI 5 mM glucose + 10% FBS | 455 | 445 | 399
RPMI 5 mM glucose + 10% dialyzed FBS | 417 | 453 | 409

Cc1ccc([S+](=O)([O-])Nc2cc(Cl)ccc2C(=O)Nc2nc(-c3ccccc3)cs2)cc1
cell viability [%]
Details | NOMO1 [4] | P12-Ichikawa [6] | SEM cells [5]
HPLM + 10% dialyzed FBS, 0.000781 µM | 122 | – | 116
HPLM + 10% dialyzed FBS, 0.00234 µM | 117 | – | 111
HPLM + 10% dialyzed FBS, 0.00702 µM | 129 | – | 110
HPLM + 10% dialyzed FBS, 0.0211 µM | 118 | – | 117
HPLM + 10% dialyzed FBS, 0.0632 µM | 121 | – | 121
HPLM + 10% dialyzed FBS, 0.19 µM | 124 | – | 115
HPLM + 10% dialyzed FBS, 0.569 µM | 128 | – | 24.8
HPLM + 10% dialyzed FBS, 1.71 µM | 119 | – | 133
HPLM + 10% dialyzed FBS, 5.12 µM | 103 | – | 119
HPLM + 10% dialyzed FBS, 15.4 µM | 119 | – | 120
HPLM + 10% dialyzed FBS, 46.1 µM | 9.35 | – | 55.3
RPMI 5 mM glucose + 10% FBS, 0.000781 µM | – | – | 127
RPMI 5 mM glucose + 10% FBS, 0.00234 µM | – | – | 123
RPMI 5 mM glucose + 10% FBS, 0.00702 µM | – | – | 109
RPMI 5 mM glucose + 10% FBS, 0.0211 µM | – | – | 126
RPMI 5 mM glucose + 10% FBS, 0.0632 µM | – | – | 124
RPMI 5 mM glucose + 10% FBS, 0.19 µM | – | – | 119
RPMI 5 mM glucose + 10% FBS, 0.569 µM | – | – | 32.1
RPMI 5 mM glucose + 10% FBS, 1.71 µM | – | – | 124
RPMI 5 mM glucose + 10% FBS, 5.12 µM | – | – | 121
RPMI 5 mM glucose + 10% FBS, 15.4 µM | – | – | 120
RPMI 5 mM glucose + 10% FBS, 46.1 µM | – | – | 58.5
RPMI 5 mM glucose + 10% dialyzed FBS, 0.000781 µM | – | 124 | 121
RPMI 5 mM glucose + 10% dialyzed FBS, 0.00234 µM | – | 130 | 110
RPMI 5 mM glucose + 10% dialyzed FBS, 0.00702 µM | – | 117 | 99.1
RPMI 5 mM glucose + 10% dialyzed FBS, 0.0211 µM | – | 123 | 108
RPMI 5 mM glucose + 10% dialyzed FBS, 0.0632 µM | – | 128 | 110
RPMI 5 mM glucose + 10% dialyzed FBS, 0.19 µM | – | 119 | 120
RPMI 5 mM glucose + 10% dialyzed FBS, 0.569 µM | – | 117 | 31.8
RPMI 5 mM glucose + 10% dialyzed FBS, 1.71 µM | – | 116 | 119
RPMI 5 mM glucose + 10% dialyzed FBS, 5.12 µM | – | 114 | 126
RPMI 5 mM glucose + 10% dialyzed FBS, 15.4 µM | – | 101 | 118
RPMI 5 mM glucose + 10% dialyzed FBS, 46.1 µM | – | 26.6 | 32.3

AUC of viability dose-response curve
Details | HPLM + 10% dialyzed FBS | RPMI 5 mM glucose + 10% FBS | RPMI 5 mM glucose + 10% dialyzed FBS
NOMO1 [2] | 455 | 409 | 447
P12-Ichikawa [1] | 458 | 457 | 450

C[N]1N=CC=C1C/2=C(\C)N(C(=O)C(=C2)/C(=O)NCC3=NC=C(C=C3)[S+](C)([O-])=O)C4=CC=CC(=C4)C(F)(F)F
cell viability [%]
Details | NOMO1 [4] | P12-Ichikawa [6] | SEM cells [5]
HPLM + 10% dialyzed FBS, 0.000781 µM | – | 107 | 96
HPLM + 10% dialyzed FBS, 0.00234 µM | – | 104 | 98.3
HPLM + 10% dialyzed FBS, 0.00702 µM | – | 106 | 100
HPLM + 10% dialyzed FBS, 0.0211 µM | – | 104 | 103
HPLM + 10% dialyzed FBS, 0.0632 µM | – | 107 | 105
HPLM + 10% dialyzed FBS, 0.19 µM | – | 107 | 103
HPLM + 10% dialyzed FBS, 0.569 µM | – | 105 | 99.5
HPLM + 10% dialyzed FBS, 1.71 µM | – | 101 | 105
HPLM + 10% dialyzed FBS, 5.12 µM | – | 98.3 | 91.2
HPLM + 10% dialyzed FBS, 15.4 µM | – | 96.8 | 95.4
HPLM + 10% dialyzed FBS, 46.1 µM | – | 88.5 | 77.9
RPMI 5 mM glucose + 10% FBS, 0.000781 µM | 105 | 105 | –
RPMI 5 mM glucose + 10% FBS, 0.00234 µM | 127 | 102 | –
RPMI 5 mM glucose + 10% FBS, 0.00702 µM | 98.9 | 109 | –
RPMI 5 mM glucose + 10% FBS, 0.0211 µM | 107 | 109 | –
RPMI 5 mM glucose + 10% FBS, 0.0632 µM | 118 | 112 | –
RPMI 5 mM glucose + 10% FBS, 0.19 µM | 102 | 93 | –
RPMI 5 mM glucose + 10% FBS, 0.569 µM | 102 | 106 | –
RPMI 5 mM glucose + 10% FBS, 1.71 µM | 97.5 | 97.3 | –
RPMI 5 mM glucose + 10% FBS, 5.12 µM | 100 | 92 | –
RPMI 5 mM glucose + 10% FBS, 15.4 µM | 96.2 | 91.1 | –
RPMI 5 mM glucose + 10% FBS, 46.1 µM | 93.5 | 99.2 | –
RPMI 5 mM glucose + 10% dialyzed FBS, 0.000781 µM | 99 | 108 | 90
RPMI 5 mM glucose + 10% dialyzed FBS, 0.00234 µM | 106 | 105 | 105
RPMI 5 mM glucose + 10% dialyzed FBS, 0.00702 µM | 101 | 112 | 120
RPMI 5 mM glucose + 10% dialyzed FBS, 0.0211 µM | 113 | 105 | 126
RPMI 5 mM glucose + 10% dialyzed FBS, 0.0632 µM | 111 | 106 | 115
RPMI 5 mM glucose + 10% dialyzed FBS, 0.19 µM | 123 | 95 | 112
RPMI 5 mM glucose + 10% dialyzed FBS, 0.569 µM | 95.7 | 110 | 108
RPMI 5 mM glucose + 10% dialyzed FBS, 1.71 µM | 79.7 | 103 | 115
RPMI 5 mM glucose + 10% dialyzed FBS, 5.12 µM | 79.7 | 102 | 100
RPMI 5 mM glucose + 10% dialyzed FBS, 15.4 µM | 90.1 | 91.7 | 107
RPMI 5 mM glucose + 10% dialyzed FBS, 46.1 µM | 103 | 97.5 | 76

AUC of viability dose-response curve
Details | HPLM + 10% dialyzed FBS | RPMI 5 mM glucose + 10% FBS | RPMI 5 mM glucose + 10% dialyzed FBS
P12-Ichikawa [1] | 462 | 454 | 455
SEM cells [3] | 466 | 453 | 468
